{
  "source": "the kinase profiling compilation of Christmann-Franck et al. (2016)",
  "assay_in_all_cases": "radiometric filter-binding kinase assay, Kinase HotSpot",
  "details_in_all_cases": "compound 0.5 µM; ATP 10 µM",
  "key": {"EPHB1 (human)": {"target": "EPHB1 (human) (UniProt P54762)"}, "INSRR (human)": {"target": "INSRR (human) (UniProt P14616)"}, "HIPK1 (human)": {"target": "HIPK1 (human) (UniProt Q86Z02)"}, "WNK2 (human)": {"target": "WNK2 (human) (UniProt Q9Y3S1)", "sequence (Q9Y3S1 whole entry, looked up)": "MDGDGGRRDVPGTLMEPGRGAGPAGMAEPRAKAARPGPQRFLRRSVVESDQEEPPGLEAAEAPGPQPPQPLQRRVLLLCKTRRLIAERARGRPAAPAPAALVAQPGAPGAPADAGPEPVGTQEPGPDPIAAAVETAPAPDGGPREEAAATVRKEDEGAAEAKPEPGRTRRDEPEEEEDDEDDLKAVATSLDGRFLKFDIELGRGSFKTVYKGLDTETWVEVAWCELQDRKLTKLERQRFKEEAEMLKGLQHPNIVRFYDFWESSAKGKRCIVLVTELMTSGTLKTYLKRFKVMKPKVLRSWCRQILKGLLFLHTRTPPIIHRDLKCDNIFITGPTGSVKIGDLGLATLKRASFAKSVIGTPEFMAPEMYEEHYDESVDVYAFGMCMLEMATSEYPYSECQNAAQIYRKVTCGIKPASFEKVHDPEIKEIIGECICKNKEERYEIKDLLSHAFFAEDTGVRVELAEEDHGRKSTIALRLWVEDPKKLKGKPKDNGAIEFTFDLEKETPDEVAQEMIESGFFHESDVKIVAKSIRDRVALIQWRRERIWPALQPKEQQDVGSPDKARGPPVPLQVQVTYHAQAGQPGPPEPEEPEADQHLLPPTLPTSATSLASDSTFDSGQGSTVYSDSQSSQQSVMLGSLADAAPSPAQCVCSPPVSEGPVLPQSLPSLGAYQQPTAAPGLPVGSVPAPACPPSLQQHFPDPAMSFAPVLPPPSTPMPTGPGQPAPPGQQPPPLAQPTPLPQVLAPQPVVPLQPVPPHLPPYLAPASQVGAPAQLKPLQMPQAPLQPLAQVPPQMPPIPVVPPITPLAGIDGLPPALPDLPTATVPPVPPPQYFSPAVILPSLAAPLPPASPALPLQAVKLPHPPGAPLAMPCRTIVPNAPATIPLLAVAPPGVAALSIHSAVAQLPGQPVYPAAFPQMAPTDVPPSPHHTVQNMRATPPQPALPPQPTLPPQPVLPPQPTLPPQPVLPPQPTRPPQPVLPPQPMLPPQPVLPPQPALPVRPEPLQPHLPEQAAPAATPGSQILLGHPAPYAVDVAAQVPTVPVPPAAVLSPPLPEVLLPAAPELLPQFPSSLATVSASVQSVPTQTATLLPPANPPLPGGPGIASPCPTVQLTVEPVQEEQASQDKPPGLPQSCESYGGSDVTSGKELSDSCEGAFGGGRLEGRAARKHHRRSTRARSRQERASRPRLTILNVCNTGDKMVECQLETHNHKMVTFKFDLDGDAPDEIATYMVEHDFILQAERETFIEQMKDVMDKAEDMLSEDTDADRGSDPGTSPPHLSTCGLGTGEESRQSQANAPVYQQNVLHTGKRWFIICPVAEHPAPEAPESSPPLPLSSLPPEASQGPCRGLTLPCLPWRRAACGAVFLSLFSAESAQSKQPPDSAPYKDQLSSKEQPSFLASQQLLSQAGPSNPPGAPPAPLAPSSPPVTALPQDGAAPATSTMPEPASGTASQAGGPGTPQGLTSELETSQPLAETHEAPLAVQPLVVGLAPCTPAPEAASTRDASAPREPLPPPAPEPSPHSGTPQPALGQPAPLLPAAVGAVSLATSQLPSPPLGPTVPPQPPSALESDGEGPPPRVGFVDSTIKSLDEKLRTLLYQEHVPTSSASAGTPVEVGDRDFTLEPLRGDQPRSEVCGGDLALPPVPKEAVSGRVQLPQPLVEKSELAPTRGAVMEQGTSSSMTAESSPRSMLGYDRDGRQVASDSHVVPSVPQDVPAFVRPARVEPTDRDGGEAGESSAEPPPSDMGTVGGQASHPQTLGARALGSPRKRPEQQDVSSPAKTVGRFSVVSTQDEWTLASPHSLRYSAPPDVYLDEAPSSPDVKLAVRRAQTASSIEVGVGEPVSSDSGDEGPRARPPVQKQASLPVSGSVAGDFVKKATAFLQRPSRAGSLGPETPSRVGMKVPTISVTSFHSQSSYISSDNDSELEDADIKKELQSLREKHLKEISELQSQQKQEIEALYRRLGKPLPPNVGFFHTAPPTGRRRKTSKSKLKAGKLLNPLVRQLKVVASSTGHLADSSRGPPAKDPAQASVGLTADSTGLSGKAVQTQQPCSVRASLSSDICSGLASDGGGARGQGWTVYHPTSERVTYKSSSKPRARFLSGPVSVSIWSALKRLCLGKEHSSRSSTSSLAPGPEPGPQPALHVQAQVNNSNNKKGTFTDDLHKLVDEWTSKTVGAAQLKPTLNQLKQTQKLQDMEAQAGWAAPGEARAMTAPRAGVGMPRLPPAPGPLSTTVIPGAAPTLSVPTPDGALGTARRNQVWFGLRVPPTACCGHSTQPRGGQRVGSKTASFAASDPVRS"}, "EPHA8 (human)": {"target": "EPHA8 (human) (UniProt P29322)"}, "PRKD1 (human)": {"target": "PRKD1 (human) (UniProt Q15139)"}, "ABL2 (human)": {"target": "ABL2 (human) (UniProt P42684)"}, "ITK (human)": {"target": "ITK (human) (UniProt Q08881)"}, "IKBKE (human)": {"target": "IKBKE (human) (UniProt Q14164)"}, "PAK1 (human)": {"target": "PAK1 (human) (UniProt Q13153)"}, "TEK (human)": {"target": "TEK (human) (UniProt Q02763)"}, "PBK (human)": {"target": "PBK (human) (UniProt Q96KB5)"}, "CDC42BPB (human)": {"target": "CDC42BPB (human) (UniProt Q9Y5S2)"}, "PRKD2 (human)": {"target": "PRKD2 (human) (UniProt Q9BZL6)"}, "BRSK2 (human)": {"target": "BRSK2 (human) (UniProt Q8IWQ3)"}, "CSNK1G1 (human)": {"target": "CSNK1G1 (human) (UniProt Q9HCP0)"}, "WEE1 (human)": {"target": "WEE1 (human) (UniProt P30291)"}, "DYRK1A (human)": {"target": "DYRK1A (human) (UniProt Q13627)"}, "MAPK14 (human)": {"target": "MAPK14 (human) (UniProt Q16539)", "sequence (Q16539 whole entry, looked up)": "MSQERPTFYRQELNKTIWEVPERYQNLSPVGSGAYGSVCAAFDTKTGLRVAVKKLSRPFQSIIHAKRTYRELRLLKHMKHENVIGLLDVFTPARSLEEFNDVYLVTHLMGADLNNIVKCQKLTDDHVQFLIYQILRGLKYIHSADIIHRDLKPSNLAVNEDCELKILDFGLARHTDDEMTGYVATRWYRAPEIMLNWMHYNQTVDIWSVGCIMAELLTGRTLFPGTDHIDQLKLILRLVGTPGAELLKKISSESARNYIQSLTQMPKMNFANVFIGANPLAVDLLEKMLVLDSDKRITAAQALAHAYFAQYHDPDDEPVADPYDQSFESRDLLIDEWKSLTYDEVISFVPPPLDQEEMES"}, "NEK1 (human)": {"target": "NEK1 (human) (UniProt Q96PY6)"}, "MINK1 (human)": {"target": "MINK1 (human) (UniProt Q8N4C8)"}, "DYRK2 (human)": {"target": "DYRK2 (human) (UniProt Q92630)"}, "MERTK (human)": {"target": "MERTK (human) (UniProt Q12866)", "sequence (Q12866 whole entry, looked up)": "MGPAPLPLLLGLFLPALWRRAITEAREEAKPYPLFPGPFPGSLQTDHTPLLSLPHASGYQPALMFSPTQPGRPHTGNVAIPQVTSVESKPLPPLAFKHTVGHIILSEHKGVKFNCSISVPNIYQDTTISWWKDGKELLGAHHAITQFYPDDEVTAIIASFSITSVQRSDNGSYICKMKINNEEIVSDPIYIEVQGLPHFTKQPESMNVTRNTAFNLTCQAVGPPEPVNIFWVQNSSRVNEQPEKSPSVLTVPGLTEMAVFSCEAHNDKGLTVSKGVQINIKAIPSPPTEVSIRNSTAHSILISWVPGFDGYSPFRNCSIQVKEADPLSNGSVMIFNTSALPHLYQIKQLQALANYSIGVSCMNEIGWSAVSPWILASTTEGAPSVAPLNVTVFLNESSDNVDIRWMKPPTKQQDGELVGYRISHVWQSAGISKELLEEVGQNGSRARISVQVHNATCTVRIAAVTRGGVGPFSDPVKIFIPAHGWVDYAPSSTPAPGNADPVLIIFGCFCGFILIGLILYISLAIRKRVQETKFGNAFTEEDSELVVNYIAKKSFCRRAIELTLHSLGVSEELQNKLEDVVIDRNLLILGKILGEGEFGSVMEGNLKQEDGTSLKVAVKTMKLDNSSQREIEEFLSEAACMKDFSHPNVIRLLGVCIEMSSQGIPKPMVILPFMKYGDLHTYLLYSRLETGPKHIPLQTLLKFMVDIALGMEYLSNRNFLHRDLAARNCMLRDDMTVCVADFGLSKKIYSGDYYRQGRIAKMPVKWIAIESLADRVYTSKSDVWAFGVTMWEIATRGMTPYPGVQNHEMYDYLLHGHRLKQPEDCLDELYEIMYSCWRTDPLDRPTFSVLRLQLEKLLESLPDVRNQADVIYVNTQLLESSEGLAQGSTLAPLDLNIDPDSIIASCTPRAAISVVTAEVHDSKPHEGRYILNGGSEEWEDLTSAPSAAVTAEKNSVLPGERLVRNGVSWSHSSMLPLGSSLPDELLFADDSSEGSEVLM"}, "TSSK2 (human)": {"target": "TSSK2 (human) (UniProt Q96PF2)"}, "PRKCI (human)": {"target": "PRKCI (human) (UniProt P41743)", "sequence (P41743 whole entry, looked up)": "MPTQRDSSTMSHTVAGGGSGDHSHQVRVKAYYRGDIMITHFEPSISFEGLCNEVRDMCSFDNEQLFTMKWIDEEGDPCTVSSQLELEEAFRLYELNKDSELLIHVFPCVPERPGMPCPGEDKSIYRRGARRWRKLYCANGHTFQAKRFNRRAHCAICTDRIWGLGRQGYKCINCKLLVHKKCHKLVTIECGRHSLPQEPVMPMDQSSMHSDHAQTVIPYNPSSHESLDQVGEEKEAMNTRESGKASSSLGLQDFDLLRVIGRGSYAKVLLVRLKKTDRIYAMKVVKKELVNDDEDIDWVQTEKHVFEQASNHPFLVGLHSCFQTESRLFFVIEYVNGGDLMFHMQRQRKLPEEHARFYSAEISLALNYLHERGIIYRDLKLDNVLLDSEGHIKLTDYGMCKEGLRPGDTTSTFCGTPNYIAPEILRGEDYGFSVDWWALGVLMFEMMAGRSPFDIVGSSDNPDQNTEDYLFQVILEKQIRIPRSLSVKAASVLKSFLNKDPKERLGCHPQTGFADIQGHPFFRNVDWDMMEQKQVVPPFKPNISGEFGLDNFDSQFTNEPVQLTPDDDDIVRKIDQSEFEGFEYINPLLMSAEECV"}, "MAP3K11 (human)": {"target": "MAP3K11 (human) (UniProt Q16584)", "sequence (Q16584 whole entry, looked up)": "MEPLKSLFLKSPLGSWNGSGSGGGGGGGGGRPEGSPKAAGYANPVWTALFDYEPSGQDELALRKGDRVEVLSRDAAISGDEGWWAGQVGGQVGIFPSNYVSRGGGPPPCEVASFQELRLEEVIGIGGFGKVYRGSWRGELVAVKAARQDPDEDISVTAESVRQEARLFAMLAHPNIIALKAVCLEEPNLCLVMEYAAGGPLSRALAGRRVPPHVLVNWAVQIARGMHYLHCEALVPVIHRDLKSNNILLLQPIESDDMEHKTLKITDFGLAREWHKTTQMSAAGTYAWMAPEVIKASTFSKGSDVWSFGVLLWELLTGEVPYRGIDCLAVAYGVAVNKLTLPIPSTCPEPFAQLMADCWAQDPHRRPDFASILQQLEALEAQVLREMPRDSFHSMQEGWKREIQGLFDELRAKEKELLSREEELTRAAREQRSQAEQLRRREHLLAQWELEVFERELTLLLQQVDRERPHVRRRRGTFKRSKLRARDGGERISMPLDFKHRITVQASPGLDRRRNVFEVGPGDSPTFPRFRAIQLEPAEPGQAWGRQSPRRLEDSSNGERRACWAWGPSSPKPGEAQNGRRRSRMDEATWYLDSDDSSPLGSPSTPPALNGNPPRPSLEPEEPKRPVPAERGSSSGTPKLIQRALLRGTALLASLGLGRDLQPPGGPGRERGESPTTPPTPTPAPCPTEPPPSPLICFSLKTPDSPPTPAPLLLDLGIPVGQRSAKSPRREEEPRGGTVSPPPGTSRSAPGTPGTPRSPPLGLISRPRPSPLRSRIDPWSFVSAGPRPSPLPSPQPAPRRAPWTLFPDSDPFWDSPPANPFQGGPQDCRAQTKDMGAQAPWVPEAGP"}, "NEK3 (human)": {"target": "NEK3 (human) (UniProt P51956)"}, "MARK4 (human)": {"target": "MARK4 (human) (UniProt Q96L34)"}, "FES (human)": {"target": "FES (human) (UniProt P07332)"}, "ACVR1 (human)": {"target": "ACVR1 (human) (UniProt Q04771)"}, "ERBB2 (human)": {"target": "ERBB2 (human) (UniProt P04626)"}, "CHEK1 (human)": {"target": "CHEK1 (human) (UniProt O14757)"}, "PHKG1 (human)": {"target": "PHKG1 (human) (UniProt Q16816)"}, "SLK (human)": {"target": "SLK (human) (UniProt Q9H2G2)"}, "FLT1 (human)": {"target": "FLT1 (human) (UniProt P17948)"}, "MATK (human)": {"target": "MATK (human) (UniProt P42679)"}, "CSNK1D (human)": {"target": "CSNK1D (human) (UniProt P48730)"}, "MAP3K10 (human)": {"target": "MAP3K10 (human) (UniProt Q02779)"}, "HIPK3 (human)": {"target": "HIPK3 (human) (UniProt Q9H422)"}, "STK25 (human)": {"target": "STK25 (human) (UniProt O00506)"}, "PKN2 (human)": {"target": "PKN2 (human) (UniProt Q16513)"}, "CDK6 CCND3 (human)": {"target": "CDK6 CCND3 (human) (UniProt P30281+Q00534)"}},
  "data": [
    {"smiles": "CC(C)[C@H](CO)Nc1nc(Nc2cc(N)cc(Cl)c2)c2ncn(C(C)C)c2n1", "values": [
      {"measurement": "residual activity", "setting": "EPHB1 (human)", "value": 59.2, "unit": "%"},
      {"measurement": "residual activity", "setting": "INSRR (human)", "value": 70.8, "unit": "%"},
      {"measurement": "residual activity", "setting": "HIPK1 (human)", "value": 99.2, "unit": "%"},
      {"measurement": "residual activity", "setting": "WNK2 (human)", "value": 112, "unit": "%"},
      {"measurement": "residual activity", "setting": "EPHA8 (human)", "value": 92.5, "unit": "%"},
      {"measurement": "residual activity", "setting": "PRKD1 (human)", "value": 94.2, "unit": "%"},
      {"measurement": "residual activity", "setting": "ABL2 (human)", "value": 21.3, "unit": "%"},
      {"measurement": "residual activity", "setting": "ITK (human)", "value": 80.2, "unit": "%"},
      {"measurement": "residual activity", "setting": "IKBKE (human)", "value": 88.4, "unit": "%"},
      {"measurement": "residual activity", "setting": "PAK1 (human)", "value": 81.8, "unit": "%"},
      {"measurement": "residual activity", "setting": "TEK (human)", "value": 92.5, "unit": "%"},
      {"measurement": "residual activity", "setting": "PBK (human)", "value": 75.6, "unit": "%"},
      {"measurement": "residual activity", "setting": "CDC42BPB (human)", "value": 98.4, "unit": "%"},
      {"measurement": "residual activity", "setting": "PRKD2 (human)", "value": 103, "unit": "%"},
      {"measurement": "residual activity", "setting": "BRSK2 (human)", "value": 88.2, "unit": "%"},
      {"measurement": "residual activity", "setting": "CSNK1G1 (human)", "value": 26.4, "unit": "%"},
      {"measurement": "residual activity", "setting": "WEE1 (human)", "value": 70.8, "unit": "%"},
      {"measurement": "residual activity", "setting": "DYRK1A (human)", "value": 57.1, "unit": "%"},
      {"measurement": "residual activity", "setting": "MAPK14 (human)", "value": 98.9, "unit": "%"},
      {"measurement": "residual activity", "setting": "NEK1 (human)", "value": 81.5, "unit": "%"},
      {"measurement": "residual activity", "setting": "MINK1 (human)", "value": 94.5, "unit": "%"},
      {"measurement": "residual activity", "setting": "DYRK2 (human)", "value": 93.2, "unit": "%"},
      {"measurement": "residual activity", "setting": "MERTK (human)", "value": 79.7, "unit": "%"},
      {"measurement": "residual activity", "setting": "TSSK2 (human)", "value": 102, "unit": "%"},
      {"measurement": "residual activity", "setting": "PRKCI (human)", "value": 89.6, "unit": "%"},
      {"measurement": "residual activity", "setting": "MAP3K11 (human)", "value": 17.7, "unit": "%"},
      {"measurement": "residual activity", "setting": "NEK3 (human)", "value": 100, "unit": "%"},
      {"measurement": "residual activity", "setting": "MARK4 (human)", "value": 71.2, "unit": "%"},
      {"measurement": "residual activity", "setting": "FES (human)", "value": 69.2, "unit": "%"},
      {"measurement": "residual activity", "setting": "ACVR1 (human)", "value": 99.4, "unit": "%"},
      {"measurement": "residual activity", "setting": "ERBB2 (human)", "value": 92.9, "unit": "%"},
      {"measurement": "residual activity", "setting": "CHEK1 (human)", "value": 96.2, "unit": "%"},
      {"measurement": "residual activity", "setting": "PHKG1 (human)", "value": 81.1, "unit": "%"},
      {"measurement": "residual activity", "setting": "SLK (human)", "value": 39.8, "unit": "%"},
      {"measurement": "residual activity", "setting": "FLT1 (human)", "value": 97.5, "unit": "%"},
      {"measurement": "residual activity", "setting": "MATK (human)", "value": 111, "unit": "%"},
      {"measurement": "residual activity", "setting": "CSNK1D (human)", "value": 65.7, "unit": "%"},
      {"measurement": "residual activity", "setting": "MAP3K10 (human)", "value": 95.1, "unit": "%"},
      {"measurement": "residual activity", "setting": "HIPK3 (human)", "value": 99.4, "unit": "%"},
      {"measurement": "residual activity", "setting": "STK25 (human)", "value": 81.8, "unit": "%"},
      {"measurement": "residual activity", "setting": "PKN2 (human)", "value": 98, "unit": "%"}
    ]},
    {"smiles": "COc1ccc(CNC(=O)Nc2ncc([N+](=O)[O-])s2)cc1", "values": [
      {"measurement": "residual activity", "setting": "EPHB1 (human)", "value": 102, "unit": "%"},
      {"measurement": "residual activity", "setting": "INSRR (human)", "value": 99.2, "unit": "%"},
      {"measurement": "residual activity", "setting": "HIPK1 (human)", "value": 100, "unit": "%"},
      {"measurement": "residual activity", "setting": "WNK2 (human)", "value": 104, "unit": "%"},
      {"measurement": "residual activity", "setting": "EPHA8 (human)", "value": 109, "unit": "%"},
      {"measurement": "residual activity", "setting": "PRKD1 (human)", "value": 104, "unit": "%"},
      {"measurement": "residual activity", "setting": "ABL2 (human)", "value": 97.9, "unit": "%"},
      {"measurement": "residual activity", "setting": "ITK (human)", "value": 89.5, "unit": "%"},
      {"measurement": "residual activity", "setting": "IKBKE (human)", "value": 99.8, "unit": "%"},
      {"measurement": "residual activity", "setting": "PAK1 (human)", "value": 94.2, "unit": "%"},
      {"measurement": "residual activity", "setting": "TEK (human)", "value": 94, "unit": "%"},
      {"measurement": "residual activity", "setting": "PBK (human)", "value": 110, "unit": "%"},
      {"measurement": "residual activity", "setting": "CDK6 CCND3 (human)", "value": 99.1, "unit": "%"},
      {"measurement": "residual activity", "setting": "CDC42BPB (human)", "value": 93.5, "unit": "%"},
      {"measurement": "residual activity", "setting": "PRKD2 (human)", "value": 97.3, "unit": "%"},
      {"measurement": "residual activity", "setting": "BRSK2 (human)", "value": 93.1, "unit": "%"},
      {"measurement": "residual activity", "setting": "CSNK1G1 (human)", "value": 97.8, "unit": "%"},
      {"measurement": "residual activity", "setting": "WEE1 (human)", "value": 95.2, "unit": "%"},
      {"measurement": "residual activity", "setting": "DYRK1A (human)", "value": 95.6, "unit": "%"},
      {"measurement": "residual activity", "setting": "MAPK14 (human)", "value": 104, "unit": "%"},
      {"measurement": "residual activity", "setting": "NEK1 (human)", "value": 94.3, "unit": "%"},
      {"measurement": "residual activity", "setting": "MINK1 (human)", "value": 90.5, "unit": "%"},
      {"measurement": "residual activity", "setting": "DYRK2 (human)", "value": 103, "unit": "%"},
      {"measurement": "residual activity", "setting": "MERTK (human)", "value": 91.1, "unit": "%"},
      {"measurement": "residual activity", "setting": "TSSK2 (human)", "value": 105, "unit": "%"},
      {"measurement": "residual activity", "setting": "PRKCI (human)", "value": 94.4, "unit": "%"},
      {"measurement": "residual activity", "setting": "MAP3K11 (human)", "value": 101, "unit": "%"},
      {"measurement": "residual activity", "setting": "NEK3 (human)", "value": 78.6, "unit": "%"},
      {"measurement": "residual activity", "setting": "MARK4 (human)", "value": 92.2, "unit": "%"},
      {"measurement": "residual activity", "setting": "FES (human)", "value": 97.7, "unit": "%"},
      {"measurement": "residual activity", "setting": "ACVR1 (human)", "value": 99.5, "unit": "%"},
      {"measurement": "residual activity", "setting": "ERBB2 (human)", "value": 96.9, "unit": "%"},
      {"measurement": "residual activity", "setting": "CHEK1 (human)", "value": 98, "unit": "%"},
      {"measurement": "residual activity", "setting": "PHKG1 (human)", "value": 101, "unit": "%"},
      {"measurement": "residual activity", "setting": "SLK (human)", "value": 88.9, "unit": "%"},
      {"measurement": "residual activity", "setting": "FLT1 (human)", "value": 96.8, "unit": "%"},
      {"measurement": "residual activity", "setting": "MATK (human)", "value": 96.6, "unit": "%"},
      {"measurement": "residual activity", "setting": "MAP3K10 (human)", "value": 97.9, "unit": "%"},
      {"measurement": "residual activity", "setting": "HIPK3 (human)", "value": 91.9, "unit": "%"},
      {"measurement": "residual activity", "setting": "STK25 (human)", "value": 98.6, "unit": "%"},
      {"measurement": "residual activity", "setting": "PKN2 (human)", "value": 101, "unit": "%"}
    ]}
  ]
}
